Read-outs that look alike come from different tables or passages of the source.

The record followed here is US10501492B2, “Antibiotic compounds” (priority 2009, dated 2019).

The test system of this experiment is M. tuberculosis Clinical isolate: S, H, R and E resistant. Format: cell-based, Mycobacterium tuberculosis. Particulars: 72 hours.

Take `C=C(NC(=O)C(=C)NC(=O)c1csc(C2=NC3c4csc(n4)C4NC(=O)c5csc(n5)C(C(C)(O)C(C)O)NC(=O)C5CSC(=N5)/C(=C\C)NC(=O)C(C(C)O)NC(=O)c5csc(n5)C3(CC2)NC(=O)C(C)NC(=O)C(=C)NC(=O)C(C)NC(=O)C(C(C)C)NC2C=Cc3c(C(C)O)cc(nc3C2O)C(=O)OC4C)n1)C(N)=O` (stereo not drawn) [Compound of Formula I(a)]: the “% reduction in RLU” value by setting is: (0.5 μg/mL) 20.88%; (5 μg/mL) 78.11%; (10 μg/mL) 88.42%.

On to `C=C(NC(=O)c1csc(C2=NC3c4csc(n4)C4NC(=O)c5csc(n5)C(C(C)(O)C(C)O)NC(=O)C5CSC(=N5)/C(=C\C)NC(=O)C(C(C)O)NC(=O)c5csc(n5)C3(CC2)NC(=O)C(C)NC(=O)C(=C)NC(=O)C(C)NC(=O)C(C(C)C)NC2C=Cc3c(C(C)O)cc(nc3C2O)C(=O)OC4C)n1)C(=O)NC(C)C(N)=O` (stereo not drawn) [Compound of Formula I(b)], for which the “% reduction in RLU” value reads like this: (0.5 μg/mL) 5.67%; (5 μg/mL) 70.9%; (10 μg/mL) 83.74%.
